Laboratory results published in patent US20090137626A1, “Pharmaceutical Composition Containing PPARgamma Agonist” (priority 2005, published 2009).
Counter-ions that a name gives are not always drawn.

Test system: Male Zucker diabetic fatty (ZDF) rats
Test: Test Example 1: elimination of blood lactate after intravenous sodium lactate load (blood lactate AUC 0 to 60 minutes)
Format: in vivo
Conditions: sodium lactate 0.1 g/kg i.v., FIG. 1
Method: The animals of Group B and Group B+A were given free access for 1 week to Compound B mixed in powdered feed (FR-2 Powdered Laboratory Rodent Diet, Funabashi Farm Co., Ltd.) to a concentration of 0.001%. Animals of the control group and Group A were given free access to powdered feed for the same time period.
All animals were administered sodium lactate at 0.1 g/kg into the caudal vein one hour after oral administration. Blood samples were collected from the caudal vein immediately before and 5, 15, 30, 45 and 60 minutes after administration of sodium lactate, and blood lactate levels were measured using the Lactate Pro LT-1710 (Arkray, Inc.). The areas under the curve for blood lactate concentration (blood lactate AUC) were calculated from blood lactate levels from 0 to 60 minutes measured for each animal. A lower blood lactate AUC value indicates a more rapid elimination of lactate from the blood.

For `COc1ccc2nc(COc3ccc(CC4SC(=O)NC4=O)cc3)n(C)c2c1` (centres unmarked) [Compound B, 5-{4-[(6-methoxy-1-methyl-1H-benzimidazol-2-yl)methoxy]benzyl}thiazolidine-2,4-dione hydrochloride], the “blood lactate AUC” value (Group B+A: Compound B 0.001% in feed for 1 week, then Compound A 300 mg/kg oral, relative to Group A (P<0.05, t-test)) was “decreased significantly” and the “blood lactate AUC” value (Group B: Compound B 0.001% in powdered feed for 1 week, alone, compared with control group (P<0.05, t-test)) was “decreased significantly”.
